Like-named read-outs stand apart in the source and are kept apart here.
Legend:
rat brain α7 receptors = rat brain α7 receptors (Rattus norvegicus, UniProt Q05941); test: biochemical; format: binding
rat brain α4β2 nAChRs = rat brain α4β2 nAChRs (Rattus norvegicus, UniProt P09483+P12390); test: [3H]-cytisine displacement from rat brain membranes; format: binding; conditions: ± SEM; for Ki: 0.3 nM [3H]-cytisine, 4 °C 4 h; for Hill Slope: [3H]-cytisine displacement
Experimental: [^3H]-Cytisine was purchased from New England Nuclear and iodinated α-bungarotoxin [^125I]-BTX from Amersham. […] [^3H]-Cytisine binding experiments were performed according to [57] with several modifications. Rat brain membranes were incubated with [^3H]-cytisine at 4 °C for 4 h. Then, 200 μg of membrane protein was incubated in a final volume of 500 μL binding saline at 4 °C for 4 h, while binding assays with ^125I-bungarotoxin were incubated at 37 °C for 3 h to assure that equilibrium was reached. […] Reactions were terminated by vacuum filtrations through Whatman GF/C filters (presoaked in PEI) using a Brandel cell harvester. Bound [^3H]-cytisine and ^125I-bungarotoxin were measured with liquid scintillation and gamma counters, respectively. Data were analyzed using GraphPad Prism software (San Diego, CA, USA). The data were fit by nonlinear regression analyses to a sigmoidal dose-response with variable slope. Ki values were calculated using the Cheng-Prusoff equation (K i = IC50/(1 + [RL]/Kd RL)) with a Kd RL value for each radioligand that had been previously determined. IC50 is the median inhibition concentration of the experimental compound and [RL] is the concentration of the radioligand.

human α4β2 nAChR [1] = target: T1, human α4β2 nAChR (Homo sapiens, UniProt P17787+P43681); test: Two-electrode voltage-clamp, human α4β2 nAChRs expressed in Xenopus oocytes; format: cell-based; conditions: ± SEM; for EC50: EC50, potency, peak current; for Imax (% ACh): efficacy, peak current normalized to 100 µM ACh
T1 construct: expressed in transfected cells; host or cells: Xenopus laevis oocytes (mRNA injection)
T1 sequence (P43681 29-627 limits assumed): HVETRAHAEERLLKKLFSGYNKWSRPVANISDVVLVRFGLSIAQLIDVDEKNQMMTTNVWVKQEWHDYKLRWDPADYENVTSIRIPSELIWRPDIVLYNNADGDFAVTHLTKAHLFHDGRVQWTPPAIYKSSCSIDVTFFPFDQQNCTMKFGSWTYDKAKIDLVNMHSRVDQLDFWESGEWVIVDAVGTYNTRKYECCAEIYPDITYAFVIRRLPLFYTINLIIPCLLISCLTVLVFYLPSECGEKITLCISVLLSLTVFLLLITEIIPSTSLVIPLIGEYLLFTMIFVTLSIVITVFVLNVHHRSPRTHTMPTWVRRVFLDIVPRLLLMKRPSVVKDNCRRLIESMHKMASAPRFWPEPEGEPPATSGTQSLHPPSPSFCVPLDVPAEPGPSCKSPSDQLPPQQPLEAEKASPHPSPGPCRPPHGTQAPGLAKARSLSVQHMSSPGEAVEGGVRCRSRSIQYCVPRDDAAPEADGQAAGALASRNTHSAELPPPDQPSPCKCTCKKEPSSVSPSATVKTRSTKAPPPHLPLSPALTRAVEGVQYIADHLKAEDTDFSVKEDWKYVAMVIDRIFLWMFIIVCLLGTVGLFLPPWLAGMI
T1 sequence (P17787 26-502): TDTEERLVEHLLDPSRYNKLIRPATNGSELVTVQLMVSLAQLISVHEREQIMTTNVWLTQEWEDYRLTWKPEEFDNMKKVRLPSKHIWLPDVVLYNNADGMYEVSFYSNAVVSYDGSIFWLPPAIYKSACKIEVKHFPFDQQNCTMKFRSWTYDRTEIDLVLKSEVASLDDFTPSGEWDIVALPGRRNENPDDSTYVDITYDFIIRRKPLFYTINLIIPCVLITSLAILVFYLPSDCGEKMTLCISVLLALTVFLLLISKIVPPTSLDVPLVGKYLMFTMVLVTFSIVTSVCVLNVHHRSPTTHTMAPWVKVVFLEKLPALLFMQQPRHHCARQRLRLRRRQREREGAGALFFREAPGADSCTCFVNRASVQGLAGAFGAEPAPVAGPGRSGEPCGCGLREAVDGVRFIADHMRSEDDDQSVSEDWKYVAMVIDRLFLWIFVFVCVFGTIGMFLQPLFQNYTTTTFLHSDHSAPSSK
Excerpt: (§1) It has been especially useful for investigating α7 nAChRs, due to the difficulties that were initially encountered in functional expression of this particular homomeric nAChR in mammalian cells. We measured the peak current response of an oocyte to a given concentration of the compound and expressed its amplitude with respect to the mean response to ACh before and after the compound test concentration.
(§2) Oocytes were harvested from Xenopus laevis frogs obtained from NASCO Scientific Co. (Ft. Atkinson, WI, USA) according to an accepted Kem laboratory Institutional Animal Care Committee (IACUC) approved protocol. We have already described the methods of oocyte injection, perfusion, rapid solution changes, and recording in considerable detail. Oocytes were injected with identical amounts (usually 12 ng) of human α4 and β2 mRNAs for α4β2 nAChR expression, or 20 ng of human α7 mRNAs for α7 nAChR expression. The two-electrode voltage-clamp method was used for recording peak responses (holding Em-50 mV for α4β2 and-60 mV for α7 receptors). […] The oocyte was no longer used if the current response to ACh decreased more than 20% during the experiment. Compounds dissolved in Barth’s saline (pH 7.3) were rapidly administered by an AutoMate perfusion system. Compound applications were separated by a 5 min wash period. We utilized GraphPad Prism software to analyze the data, always assuming a single homogeneous receptor population.

human α7 nAChR = target: T2, human α7 nAChR (Homo sapiens, UniProt P36544); test: Two-electrode voltage-clamp, human α7 nAChRs expressed in Xenopus oocytes; format: cell-based; conditions: for EC50: EC50, potency, peak current estimates; for EC50 / Imax (% ACh): ± SEM; for Imax (% ACh): efficacy, peak current normalized to 1 mM ACh; for agonist character at α7 nAChRs: in words
T2 construct: expressed in transfected cells; host or cells: Xenopus laevis oocytes (mRNA injection)
T2 sequence (P36544 23-502): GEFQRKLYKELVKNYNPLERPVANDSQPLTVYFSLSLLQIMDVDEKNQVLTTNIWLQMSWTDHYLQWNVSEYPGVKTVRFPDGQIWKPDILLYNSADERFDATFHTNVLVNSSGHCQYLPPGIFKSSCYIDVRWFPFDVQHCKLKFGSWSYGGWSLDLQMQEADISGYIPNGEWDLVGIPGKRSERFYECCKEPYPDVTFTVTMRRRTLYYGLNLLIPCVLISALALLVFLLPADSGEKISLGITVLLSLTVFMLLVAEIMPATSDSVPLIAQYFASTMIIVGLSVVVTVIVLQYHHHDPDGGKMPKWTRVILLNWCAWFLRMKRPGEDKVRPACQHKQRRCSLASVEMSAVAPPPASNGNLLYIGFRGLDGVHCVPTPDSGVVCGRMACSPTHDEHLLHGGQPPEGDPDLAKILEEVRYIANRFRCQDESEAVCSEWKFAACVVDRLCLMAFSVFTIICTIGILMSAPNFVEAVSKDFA
Excerpt: as §1, §2

human α4β2 nAChR [2] = target: T1, human α4β2 nAChR; conditions: human α4β2 nAChRs; ref Kem et al., in preparation; cited from earlier work

Sequence of rat brain α4β2 nAChRs (P09483 31-630): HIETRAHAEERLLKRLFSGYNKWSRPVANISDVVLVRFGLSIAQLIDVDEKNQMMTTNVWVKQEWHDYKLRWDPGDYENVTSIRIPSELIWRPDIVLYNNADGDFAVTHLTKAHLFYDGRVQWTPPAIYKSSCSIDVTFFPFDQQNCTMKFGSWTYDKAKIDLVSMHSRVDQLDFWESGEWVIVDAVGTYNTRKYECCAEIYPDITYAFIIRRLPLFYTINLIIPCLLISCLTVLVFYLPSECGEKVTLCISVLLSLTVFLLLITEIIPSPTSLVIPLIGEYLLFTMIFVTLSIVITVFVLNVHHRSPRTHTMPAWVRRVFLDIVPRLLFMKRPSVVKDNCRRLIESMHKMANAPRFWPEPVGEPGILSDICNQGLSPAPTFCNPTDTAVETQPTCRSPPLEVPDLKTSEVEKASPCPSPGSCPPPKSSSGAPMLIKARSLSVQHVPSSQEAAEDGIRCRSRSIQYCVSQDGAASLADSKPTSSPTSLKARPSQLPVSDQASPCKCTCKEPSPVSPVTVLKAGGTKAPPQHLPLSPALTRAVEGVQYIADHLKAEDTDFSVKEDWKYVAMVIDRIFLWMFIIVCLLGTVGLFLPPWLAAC
Sequence of rat brain α4β2 nAChRs (P12390 25-500): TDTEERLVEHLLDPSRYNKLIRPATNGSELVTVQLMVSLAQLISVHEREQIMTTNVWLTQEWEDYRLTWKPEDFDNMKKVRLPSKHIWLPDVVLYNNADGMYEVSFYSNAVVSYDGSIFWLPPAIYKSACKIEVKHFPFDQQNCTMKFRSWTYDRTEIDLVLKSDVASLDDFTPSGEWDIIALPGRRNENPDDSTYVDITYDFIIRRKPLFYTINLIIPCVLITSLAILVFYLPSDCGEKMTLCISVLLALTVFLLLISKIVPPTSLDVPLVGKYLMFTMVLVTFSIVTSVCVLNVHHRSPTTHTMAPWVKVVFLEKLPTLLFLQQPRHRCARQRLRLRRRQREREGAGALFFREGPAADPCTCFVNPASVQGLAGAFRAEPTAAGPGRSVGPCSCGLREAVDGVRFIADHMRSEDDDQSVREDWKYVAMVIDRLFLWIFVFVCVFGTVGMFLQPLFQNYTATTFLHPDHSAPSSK
Sequence of rat brain α7 receptors (Q05941 23-502): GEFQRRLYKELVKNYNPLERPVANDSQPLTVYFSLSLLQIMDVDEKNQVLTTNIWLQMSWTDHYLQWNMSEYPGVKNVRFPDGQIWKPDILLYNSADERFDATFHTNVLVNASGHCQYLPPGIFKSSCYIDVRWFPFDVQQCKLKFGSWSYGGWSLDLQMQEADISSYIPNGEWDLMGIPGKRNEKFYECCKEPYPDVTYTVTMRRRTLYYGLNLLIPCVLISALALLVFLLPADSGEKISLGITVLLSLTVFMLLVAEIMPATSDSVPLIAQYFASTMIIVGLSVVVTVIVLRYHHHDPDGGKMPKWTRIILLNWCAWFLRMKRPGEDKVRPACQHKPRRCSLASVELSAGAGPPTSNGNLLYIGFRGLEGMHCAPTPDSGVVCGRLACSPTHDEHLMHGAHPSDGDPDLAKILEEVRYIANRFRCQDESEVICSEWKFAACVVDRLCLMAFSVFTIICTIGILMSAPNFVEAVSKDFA

SMILES | Ki (rat brain α7 receptors) [nM] | Ki (rat brain α4β2 nAChRs) [nM] | Hill Slope (rat brain α4β2 nAChRs) | EC50 (human α4β2 nAChR [1]) [nM] | Imax (% ACh) (human α4β2 nAChR [1]) [%ACh] | EC50 (human α7 nAChR) [nM] | Imax (% ACh) (human α7 nAChR) | agonist character at α7 nAChRs (human α7 nAChR) | EC50 (human α4β2 nAChR [2]) [nM] | Imax (human α4β2 nAChR [2]) [%]
C1=CC[C@H](c2cccnc2)NC1 [R-anatabine, anatabine] | 680 ± 120 | – | – | – | – | – | – | – | – | –
C1=CC(c2cccnc2)NCC1 (stereo not drawn) [R-isoanatabine, isoanatabine] | – | 136 ± 11 | 0.94 ± 0.05 | 310 ± 90 | 102 ± 5.7 | 61300 ± 12000 | 35.4 ± 5.3 | weak partial agonist | – | –
c1cncc([C@@H]2CCCCN2)c1 [S-anabasine, anabasine] | – | – | – | – | – | – | – | – | 4000 | 78
C1=CC[C@@H](c2cccnc2)NC1 [S-anatabine, anatabine] | 236 ± 20 | – | – | – | – | – | – | – | – | –
C1=CC(c2cccnc2)NCC1 (stereo not drawn) [S-isoanatabine, isoanatabine] | – | 108 ± 14 | 1.08 ± 0.15 | 1010 ± 330 | 78.7 ± 1.9 | 52300 ± 13000 | 81.9 ± 9.1 | highly efficacious agonists | – | –
